Measured values as given in patent US8093209B2, “Methods of suppressing microglial activation and systemic inflammatory responses” (Cognosci, Incorporated, priority 2002, dated 2012).

B1: RAP: 39 kD protein that blocks the binding of all known ligands to LRP (protein, UniProt P30533 35-357, looked up)
Alpha-2-macroglobulin …: YSREKNQPKPSPKRESGEEFRMEKLNQLWEKAQRLHLPPVRLAELHADLKIQERDELAWKKLKLDGLDEDGEKEARLIRNLNVILAKYGLDGKKDARQVTSNSLSGTQEDGLDDPRLEKLWHKAKTSGKFSGEELDKLWREFLHHKEKVHEYNVLLETLSRTEEIHENVISPSDLSDIKGSVLHSRHTELKEKLRSINQGLDRLRRVSHQGYSTEAEFEEPRVIDLWDLAQSANLTDKELEAFREELKHFEAKIEKHNHYQKQLEIAHEKLRHAESVGDGERVSRSREKHALLEGRTKELGYTVKKHLQDLSGRISRARHNEL

Tests used:
[1] = system: mice with midline closed head injury; test: Murine closed head injury model (rotorod, weight, Morris Water Maze, survival); assay type: in vivo, mouse
Text: The mice received a midline closed head injury delivered by a pneumatic impactor at a speed of 6.8 m/s.

[2] = system: primary rat neuronal/glial cultures exposed to NMDA; test: NMDA-induced LDH release in primary neuronal-glial cultures; assay type: cell-based
Method: (§1) Primary neuronal-glial cultures were prepared from fetal Sprague-Dawley rat brains at 18 days of gestation as previously described (Pearlstein et al., 1998). Brains were harvested from 10-15 pups and dissected to separate cortex from meninges and subcortical structures using anatomical landmarks. Cortices were pooled and minced into 2 mm^3 pieces in a buffered salt solution supplemented with 20 mM HEPES buffer, pH 7.4, containing 0.25% trypsin. The tissue was incubated for 20 minutes at 37° C. in a 5% CO2/95% room air atmosphere, and washed twice with ice-cold, glutamine-free minimum essential medium (MEM; Life Technologies) containing 15 mM glucose, 5% fetal bovine serum (GIBCO), 5% horse serum (GIBCO), and 1% DNase-I (Sigma Chemical Co., St. Louis, Mo., USA). Tissue pieces were dissociated by trituration through a fire-polished 9-inch Pasteur pipette (I.D.=0.7 mm). The resultant suspension was centrifuged at 50×g for 10 min, the supernatant discarded, and the pellet resuspended in growth medium (MEM supplemented with 15 mM glucose, 5% fetal bovine serum, and 5% horse serum). The dissociated cells were plated to achieve a confluent monolayer using 4×10^5 cells per well in poly-D-lysine coated, 24-well culture plates (Falcon 3047; Becton Dickinson Co., Lincoln Park, N.J., USA). Cultures were maintained undisturbed at 37° C. in a humidified 5% CO2/95% room air atmosphere for 13-16 days prior to use.
Mature cultures (13-16 days in vitro) were washed with Mg^2+-free buffered salt solution (BSS) containing 20 mM HEPES buffer (pH7.4) and 1.8 mM CaCl2, prior to the addition of NMDA. Following NMDA exposure, cultures were maintained for 30 minutes at 37° C. in a 5% CO2/95% air atmosphere. The medium containing NMDA was then removed and replaced with MEM supplemented with 20 mM glucose. The cultures were returned to the incubator for 24 h. In all experiments, cellular damage was assessed at 24 h after exposure to NMDA by measurement of the activity of lactate dehydrogenase (LDH) released into the medium as described below. The non-competitive NMDA receptor antagonist, MK-801 (Tocris Cookson Ins., St. Louis, Mo.) at a concentration of 10 μM was used as a positive control. Preliminary dose-response studies were performed to determine the concentration of NMDA (100 μM) required to effect a near-maximal LDH release (ED90) as used in the present study.
The effect of human recombinant apoE (Panverra, Madison, Wis.) on 100 μM NMDA-induced LDH release was assessed and the dose-response curve was obtained (apoE: 0.1-10 μM final concentration). ApoE3, the most common human isoform, was added to the cultures 30 minutes prior to and removed following NMDA exposure. The effect of apoE peptide (133-149) on NMDA (100 μM or 300 μM)-induced LDH release was next assessed and the dose-response curve was obtained in a separate set of sister cultures that were simultaneously treated under one of the following conditions: (1) various doses of peptide (0.3 μM, 1 μM, 3 μM, 6 μM, 10 μM final concentration) were added to the culture immediately prior to and removed at the end of NMDA exposure; (2) no peptide, NMDA exposure; (3) no peptide, no NMDA exposure; (4) no peptide, NMDA exposure with 10 μM MK-801 for 30 minutes. The effect of a scrambled control peptide on NMDA-induced LDH release was similarly assessed.
The effect of time of administration of apoE peptide (133-149) on NMDA-induced LDH release was assessed in a separate set of sister cultures that were simultaneously treated under one of following conditions: (1) peptide was added to the culture medium 24 h prior to and removed immediately before exposure to NMDA; (2) peptide was added immediately prior to and removed at the end of the NMDA exposure; (3) peptide was added immediately following the 30 minutes NMDA exposure; (4) no peptide, NMDA exposure; (5) no peptide, no NMDA exposure. […]

[3] = system: primary rat neuronal/glial cultures exposed to NMDA; test: NMDA-induced 45Ca uptake by primary neuronal-glial cultures; assay type: cell-based; conditions: 6 μM peptide
Method: as §1
Cellular calcium uptake from the extracellular space was assessed using ^45CaCl2 (American Radiolabeled Chemicals, St. Louis, Mo.). After washing the cultures with Mg^2+-free BSS containing 20 mM HEPES buffer, 6 μM peptide or 10 μM MK-801 was added to each well prior to and removed at the end of 100 μM NMDA exposure. ^45Ca (0.28 μCi/ml, 0.9 μCi/well) was added to each well immediately prior to NMDA exposure. The cultures were returned to the incubator and maintained at 37° C. Twenty minutes later, the exposure medium was removed and each well was washed 3 times with ice-cold Mg^2+-free BSS containing 20 mM HEPES buffer. The cells were subsequently lysed by addition of 0.2% sodium dodecyl sulfate (SDS). An aliquot from each well was added to a liquid scintillation vial containing 10 ml Cytoscint™ (ICN, Biochemical Research Product, CA) and radioactivity was determined by scintillation counting and normalized to cell count.

[4] = system: LPS-induced serum TNFα and IL-6 in C57-BL6 mice; test: Intravenous LPS sepsis model, serum TNFα and IL-6 by ELISA; assay type: in vivo, mouse; conditions: peptide 6.6 mg/kg, LPS 375 μg/kg i.v.
Method: In these methods, 14-16 week old male C57-BL6 mice were injected with LPS (11.25 μg in 150 μl sterile isotonic saline, or 375 μg/kg) via the tail vein, and then immediately with vehicle (isotonic sterile saline) or ApoE (133-149) (at a dose of 200 μg, in 100 μl, or 6.6 mg/kg, prepared in isotonic saline). Serum samples were obtained in both LPS+vehicle and LPS+peptide groups (n=10 animals/group) at the following timepoints: time 0 (prior to injection), 1 hour, 3 hour and 24 hours after injection. Blood was collected by transcardial puncture, and allowed to clot for 30 minutes. Serum samples, obtained after centrifugation at 16,000 g for 5 minutes, were screened by solid phase ELISA for TNFα and IL-6. There were 20 animals per time point.

peritoneal macrophage = test: Intracellular calcium in Fura-2/AM loaded peritoneal macrophage (Example 4); assay type: cell-based, mouse; conditions: preincubation with 100 molar excess of RAP
Method: Thioglycolate-elicited peritoneal macrophage were harvested from 8-week old C57-BL6 mice, and plated at a density of 4×10^3 cells on glass coverslips, loaded with 2.5 μM Fura-2/AM for thirty minutes, and washed with Hanks buffered solution containing […] calcium. After exposure to 5 nM human recombinant apoE3 or E4, intracellular calcium was measured by Zeiss digital microscopy.

[5] = system: thioglycollate-elicited peritoneal macrophages; test: [Ca2+]i in Fura-2/AM treated single macrophages, digital imaging microscopy (Example 10); assay type: cell-based, mouse; conditions: 1000-fold molar excess RAP, 10 mM NiCl2, or 1 μg/ml pertussis toxin 12 h
Method: Macrophage Harvesting. All experiments involving animals were first approved by the Duke Institutional Animal Care and Use Committee. Pathogen-free female C57BL/6 mice and ApoE deficient mice previously backcrossed 10 times to the C57BL/6 strain were obtained from the Jackson Laboratory (Bar Harbor, Me.). Thioglycollate-elicited peritoneal macrophages were harvested by peritoneal lavage using 10 ml of ice-cold Hanks' balanced salt solution containing 10 mM HEPES and 3.5 mM NaHCO3 (HHBSS), pH 7.4. The macrophages were pelleted by centrifugation at 4° C. at ˜800×g for 10 min and resuspended in RPMI 1640 media supplemented with 25 mM HEPES, 12.5 U/ml penicillin, 6.5 mg/ml streptomycin, and 5% fetal bovine serum.
Measurement of [Ca^2+]i in apoE and peptide treated macrophage. Changes in [Ca^2+]i levels in Fura-2/AM treated single cells were quantified using digital imaging microscopy in accordance with known techniques. Macrophages were plated on glass coverslips sitting in 35 mm Petri dishes at a density of 1.5×10^5 cells/cm^2, and allowed to adhere for 2 h in a humidified 5% CO2 incubator at 37° C. The non-adherent cells were aspirated and the monolayers were washed twice with HHBSS. 4 μM Fura-2/AM was incubated with the cells for thirty min in the dark at room temperature and [Ca^2+]i was subsequently measured using a digital imaging microscope in accordance with known techniques. […] To determine if signaling resulted from ligation of the ligand to LRP, cells were preincubated with a 1000-fold molar excess of RAP or 10 mM NiCl2, both of which inhibit ligand binding to LRP, for 5 min prior to stimulation with apoE or peptide. In experiments in which the involvement of a G protein was assessed, monolayers were incubated with 1 μg/ml pertussis toxin for 12 h at 37° C. and Ca^2+ measurements were made as stated above.

| Molecule | learning to find hidden platform, Morris Water Maze ([1]; 21 days after injury, p<0.05) | weight loss after closed head injury ([1]; high dose 406 ug/kg i.v.) | rotorod latency (motor deficit) after closed head injury ([1]; high dose 406 ug/kg i.v. 30 min after injury) | acute survival, Kaplan-Meier analysis ([1]; mouse, in vivo) | duration of protective effect of single dose ([1]; p<0.05) | protection against NMDA (LDH release), timing ([2]; 6 μM peptide 24 hours prior to NMDA exposure) | protection against NMDA (LDH release), timing ([2]; 6 μM peptide added following NMDA exposure) | protection against NMDA (LDH release), timing ([2]; 6 μM peptide concurrent with 100 μM NMDA) | protection against NMDA-induced cell damage, truncated peptides ([2]; 6 μM peptide, 100 μM NMDA) | peptide concentration at which protection was first observed ([2]; 100 μM NMDA) | peptide concentration of maximal protection ([2]; 100 μM NMDA) | protection against NMDA toxicity (LDH release) ([2]; 300 μM NMDA) | protection against NMDA toxicity (LDH release), dose response ([2]; peptide 0.3-10 μM, 100 μM NMDA) | NMDA-induced calcium influx compared to NMDA alone ([3]; 100 μM NMDA) | calcium influx in absence of NMDA ([3]; no NMDA) | serum IL-6 versus LPS+vehicle ([4]; 1 and 3 hours post-injection) | serum TNFα versus LPS+vehicle ([4]; 1 hour post-injection) | block of ApoE-induced intracellular calcium mobilization (peritoneal macrophage) | effect of preincubation on apoE-induced [Ca2+]i increase [5] |
| --- | --- | --- | --- | --- | --- | --- | --- | --- | --- | --- | --- | --- | --- | --- | --- | --- | --- | --- | --- |
| LRVRLAS HLRKLRKRLL (LRVRLASHLRKLRKRLL; fragment of receptor-binding domain of human ApoE; listed as Homo sapiens) [ApoE (133-149), 17-mer, ApoE positions 133-149] | appeared to provide protection in learning deficits | protected animals from this motor deficit (FIG. 10A), and concomitant weight loss | protected animals from this motor deficit | significant improvement in acute survival | sustained for five days following injury | modest but significant protection | no protection | robust protection | completely blocked 100 μM NMDA-induced cell death | 3 μm | 6 µM | failed to protect cells at any peptide concentration | robust, dose-dependent protection | significantly decreased calcium influx | no direct effect on calcium influx | significantly reduced | significantly reduced | – | – |
| B1 | – | – | – | – | – | – | – | – | – | – | – | – | – | – | – | – | – | did not block this effect | markedly attenuated the [Ca^2+]i increases |
